In US5328902A, “7-(substituted)-9-[(substituted glycyl)amido]-6-demethyl-6-deoxytetracyclines” (American Cyanamid Co., priority 1992, dated 1994):
≈ marks a conversion by molar mass, not a printed value.

Experiments:
Format in all cases: cell-based
[1] = tested on: Ps. acruginosa ATCC 27853; assay: MIC, agar dilution; settings: Ps. acruginosa ATCC 27853
Enterococcus 12201 = assay: MIC, agar dilution; settings: Enterococcus 12201
E. coli UBMS 90-5 = assay: MIC, agar dilution
S. mariescens FPOR 8733 = assay: MIC, agar dilution
E. coli UBMS 89-1 Tet M = assay: microbe, parasite or virus in culture; settings: E. coli UBMS 89-1 Tet M
E. coli PRP1 Tet A = assay: microbe, parasite or virus in culture; settings: E. coli PRP1 Tet A
S. aureus UBMS 90-3 = assay: MIC, agar dilution; settings: S. aureus UBMS 90-3
[2] = tested on: S. aureus UBMS 88-5 Tet M; assay: microbe, parasite or virus in culture; settings: S. aureus UBMS 88-5 Tet M
E. coli UBMS 90-4 Tet M = assay: microbe, parasite or virus in culture; settings: E. coli UBMS 90-4 Tet M
S. aureus IVES 2943 = assay: MIC, agar dilution; settings: S. aureus IVES 2943
[3] = tested on: E. coli MC 4100 TNIOC Tet B; assay: microbe, parasite or virus in culture; settings: E. coli MC 4100 TNIOC Tet B
[4] = tested on: S. aureus UBMS 88-7 Tet K; assay: microbe, parasite or virus in culture; settings: S. aureus UBMS 88-7 Tet K
[5] = tested on: S. aureus UBMS 90-1 Tet M; assay: microbe, parasite or virus in culture; settings: S. aureus UBMS 90-1 Tet M
S. aureus ROSE (MP) = assay: MIC, agar dilution; settings: S. aureus ROSE (MP)
S. aureus SMITH (MP) = assay: MIC, agar dilution; settings: S. aureus SMITH (MP)
E. coli #311 (MP) = assay: MIC, agar dilution; settings: E. coli #311 (MP)
S. aureus ATCC 29213 = assay: MIC, agar dilution; settings: S. aureus ATCC 29213
E. coli UBMS 88-1 Tet B = assay: microbe, parasite or virus in culture; settings: E. coli UBMS 88-1 Tet B; 18 hours at 35° C.
S. aureus IVES 1 983 = assay: MIC, agar dilution; settings: S. aureus IVES 1 983
[6] = tested on: E. coli UBMS 89-2 Tet sens.; assay: MIC, agar dilution; settings: E. coli UBMS 89-2 Tet sens.
E. coli J2175 = assay: MIC, agar dilution; settings: E. coli J2175
E. coli BAJ9003 IMP MUT = assay: microbe, parasite or virus in culture; settings: E. coli BAJ9003 IMP MUT
E. coli J3272 Tet C = assay: microbe, parasite or virus in culture; settings: E. coli J3272 Tet C
S. aureus NEMC 8769 = assay: MIC, agar dilution; settings: S. aureus NEMC 8769
E. coli J3272 Tet D = assay: microbe, parasite or virus in culture; settings: E. coli J3272 Tet D
[7] = tested on: S. aureus UBMS 90-2 Tet M; assay: microbe, parasite or virus in culture; settings: S. aureus UBMS 90-2 Tet M
[8] = tested on: E. coli MC 4100 Tet sens.; assay: MIC, agar dilution
[9] = tested on: X. maltophilia NEMC 87210; assay: MIC, agar dilution
[10] = tested on: S. hemolyticus AVHAH 88-3; assay: MIC, agar dilution; settings: S. hemolyticus AVHAH 88-3
S. aureus UBMS 88-4 = assay: MIC, agar dilution; settings: S. aureus UBMS 88-4
E. coli ATCC 25922 = assay: MIC, agar dilution; settings: E. coli ATCC 25922
E. faecalis ATCC 29212 = assay: MIC, agar dilution; settings: E. faecalis ATCC 29212

Row | SMILES | MIC [1] [µg/mL] | MIC (Enterococcus 12201) [µg/mL] | MIC (S. mariescens FPOR 8733) [µg/mL] | MIC (E. coli UBMS 89-1 Tet M) [µg/mL] | MIC (S. aureus UBMS 90-3) [µg/mL] | MIC [2] [µg/mL] | MIC [5] [µg/mL] | MIC (S. aureus SMITH (MP)) [µg/mL] | MIC (E. coli #311 (MP)) [µg/mL] | MIC (S. aureus ATCC 29213) [µg/mL] | MIC (E. coli UBMS 88-1 Tet B) [µg/mL] | MIC (E. coli BAJ9003 IMP MUT) [µg/mL] | MIC (S. aureus NEMC 8769) [µg/mL] | MIC (E. coli J3272 Tet D) [µg/mL] | MIC [7] [µg/mL] | MIC [8] [µg/mL] | MIC [9] [µg/mL] | MIC [10] [µg/mL] | MIC (S. aureus UBMS 88-4) [µg/mL] | MIC (E. coli ATCC 25922) [µg/mL] | also measured
1 | CN(C)c1cc(NC(=O)CNCCO)c(O)c2c1CC1CC3C(N(C)C)C(O)=C(C(N)=O)C(=O)C3(O)C(O)=C1C2=O.Cl (stereo not drawn) [P, [4S-(4alpha,12aalpha)]-4,7-Bis(dimethylamino)-1.4,4a,5,5a,6,11,12a-octahydro-3,10, 12,12a-tetrahydroxy-9-[[[(2-hydroxyethyl)amino]acetyl]amino]-1,11-dioxo-2-naphthacenecarboxamide monohydrochloride] | > 32 | 8 | > 32 | > 32 | 8 | 32 | 32 | 4 | 16 | 8 | > 32 | 2 | 4 | 16 | 16 | 4 | > 32 | 32 | 8 | 16 | MIC (E. coli UBMS 90-5): 32 µg/mL; MIC (E. coli PRP1 Tet A): > 32 µg/mL; MIC (E. coli UBMS 90-4 Tet M): 32 µg/mL; MIC (S. aureus IVES 2943): > 32 µg/mL; MIC [3]: > 32 µg/mL; MIC [4]: 32 µg/mL; MIC (S. aureus ROSE (MP)): > 32 µg/mL; MIC (S. aureus IVES 1 983): > 32 µg/mL; MIC [6]: > 32 µg/mL; MIC (E. coli J2175): 32 µg/mL; MIC (E. coli J3272 Tet C): > 32 µg/mL; MIC (E. faecalis ATCC 29212): 4 µg/mL
2 | CN(C)c1cc(NC(=O)CNCCCCO)c(O)c2c1C[C@H]1C[C@H]3[C@H](N(C)C)C(O)=C(C(N)=O)C(=O)[C@@]3(O)C(O)=C1C2=O [R] | > 32 | 8 (≈ 13.3 µM) | 8 (≈ 13.3 µM) | 32 (≈ 53.2 µM) | 8 (≈ 13.3 µM) | 32 (≈ 53.2 µM) | 32 (≈ 53.2 µM) | 8 (≈ 13.3 µM) | 32 (≈ 53.2 µM) | 16 (≈ 26.6 µM) | > 32 | 4 (≈ 6.65 µM) | 8 (≈ 13.3 µM) | 8 (≈ 13.3 µM) | 16 (≈ 26.6 µM) | 8 (≈ 13.3 µM) | 8 (≈ 13.3 µM) | 32 (≈ 53.2 µM) | 8 (≈ 13.3 µM) | 32 (≈ 53.2 µM) | MIC (S. aureus IVES 2943): > 32 µg/mL; MIC [4]: 32 µg/mL (≈ 53.2 µM); MIC (S. aureus ROSE (MP)): > 32 µg/mL; MIC (S. aureus IVES 1 983): > 32 µg/mL; MIC (E. faecalis ATCC 29212): 8 µg/mL (≈ 13.3 µM)
3 | CN(C)c1cc(NC(=O)CNCCF)c(O)c2c1CC1CC3C(N(C)C)C(O)=C(C(N)=O)C(=O)C3(O)C(O)=C1C2=O (stereo not drawn) [T, [4S-(4alpha,12aalpha)]-4,7-Bis(dimethylamino)-9-[[[(2-fluoroethyl)amino]acetyl]amino]-1,4,4a,5,5a,6,11,12a-octahydro3,10,12,12a-tetrahydroxy-1,11-dioxo-2-naphthacenecarboxamide] | > 32 | 2 (≈ 3.47 µM) | > 32 | 8 (≈ 13.9 µM) | 2 (≈ 3.47 µM) | 4 (≈ 6.95 µM) | 4 (≈ 6.95 µM) | 1 (≈ 1.74 µM) | 16 (≈ 27.8 µM) | 4 (≈ 6.95 µM) | 16 (≈ 27.8 µM) | 1 (≈ 1.74 µM) | 4 (≈ 6.95 µM) | 8 (≈ 13.9 µM) | 4 (≈ 6.95 µM) | 2 (≈ 3.47 µM) | 16 (≈ 27.8 µM) | 8 (≈ 13.9 µM) | 4 (≈ 6.95 µM) | 8 (≈ 13.9 µM) | MIC (E. coli UBMS 90-5): 16 µg/mL (≈ 27.8 µM); MIC (E. coli PRP1 Tet A): > 32 µg/mL; MIC (E. coli UBMS 90-4 Tet M): 8 µg/mL (≈ 13.9 µM); MIC [3]: 16 µg/mL (≈ 27.8 µM); MIC [6]: 16 µg/mL (≈ 27.8 µM); MIC (E. coli J2175): 16 µg/mL (≈ 27.8 µM); MIC (E. faecalis ATCC 29212): 1 µg/mL (≈ 1.74 µM)
